Laboratory results: ChEMBL document CHEMBL1201862, “PubChem BioAssay data set” (2004)
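48-hour exposure; five concentrations; linearly interpolated endpoints. At the GI50, growth is halved.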 Calls of active or inactive are those of the source. Rule as the data show it: active = GI50 up to about 1.1 µM and inactive = higher.

Key:
Assay in all cases: growth of human tumour cells (NCI), 48 h
UACC-62 = tested on: UACC-62
A549 = tested on: A549
M14 = tested on: M14
MDA-N = tested on: MDA-N
SW-620 = tested on: SW-620
NCI-H226 = tested on: NCI-H226
SN12C = tested on: SN12C
OVCAR-4 = tested on: OVCAR-4
HCC 2998 = tested on: HCC 2998
HOP-92 = tested on: HOP-92
CCRF-CEM = tested on: CCRF-CEM
HCT-116 = tested on: HCT-116
OVCAR-5 = tested on: OVCAR-5
NCI-H460 = tested on: NCI-H460
Hs-578T = tested on: Hs-578T
OVCAR-3 = tested on: OVCAR-3
A498 = tested on: A498
NCI-H23 = tested on: NCI-H23
SNB-75 = tested on: SNB-75

Measured: GI50

Cn1c(N=[N+]=[N-])cc(=O)n(C)c1=O
inactive: UACC-62 > 100 µM | A549 > 100 µM | M14 > 100 µM | MDA-N > 100 µM | SW-620 > 100 µM | NCI-H226 > 100 µM | SN12C > 100 µM | OVCAR-4 > 100 µM | HCC 2998 > 100 µM | HOP-92 > 100 µM | CCRF-CEM > 100 µM | HCT-116 > 100 µM | OVCAR-5 > 100 µM | NCI-H460 > 100 µM | Hs-578T > 100 µM | OVCAR-3 > 100 µM | A498 > 100 µM | NCI-H23 > 100 µM

NC(=O)CNC(=O)[C@@H]1C[C@@H](OCCC(=O)O)CN1C(=O)OCc1ccccc1
inactive: UACC-62 > 100 µM | A549 > 100 µM | M14 > 100 µM | MDA-N > 100 µM | SW-620 > 100 µM | NCI-H226 > 100 µM | SN12C > 100 µM | OVCAR-4 > 100 µM | CCRF-CEM > 100 µM | HCT-116 > 100 µM | OVCAR-5 > 100 µM | NCI-H460 > 100 µM | Hs-578T > 100 µM | SNB-75 > 100 µM | OVCAR-3 > 100 µM | A498 > 100 µM | NCI-H23 > 100 µM

O=C(O)c1ccc(SSc2ccc(C(=O)O)cn2)nc1
inactive: UACC-62 > 100 µM | A549 > 100 µM | M14 > 100 µM | MDA-N > 100 µM | SW-620 > 100 µM | NCI-H226 72.3 µM | SN12C > 100 µM | OVCAR-4 > 100 µM | HOP-92 > 100 µM | CCRF-CEM > 100 µM | HCT-116 > 100 µM | OVCAR-5 > 100 µM | NCI-H460 > 100 µM | Hs-578T > 100 µM | SNB-75 > 100 µM | OVCAR-3 > 100 µM | A498 > 100 µM | NCI-H23 > 100 µM

CSc1ccccc1NC1=NCCO1
inactive: UACC-62 > 100 µM | A549 > 100 µM | M14 > 100 µM | MDA-N > 100 µM | SW-620 > 100 µM | NCI-H226 > 100 µM | SN12C > 100 µM | OVCAR-4 > 100 µM | HCC 2998 > 100 µM | HOP-92 > 100 µM | CCRF-CEM > 100 µM | HCT-116 > 100 µM | OVCAR-5 > 100 µM | NCI-H460 > 100 µM | Hs-578T > 100 µM | OVCAR-3 > 100 µM | A498 > 100 µM | NCI-H23 > 100 µM

CCOC(=O)/C=C(/C(=O)OCC)n1ccc(N)nc1=O
inactive: UACC-62 > 100 µM | A549 > 100 µM | M14 > 100 µM | MDA-N > 100 µM | SW-620 72.3 µM | NCI-H226 > 100 µM | SN12C > 100 µM | OVCAR-4 56 µM | HCC 2998 > 100 µM | HOP-92 53.3 µM | CCRF-CEM 25.5 µM | HCT-116 > 100 µM | OVCAR-5 47.9 µM | NCI-H460 > 100 µM | Hs-578T > 100 µM | SNB-75 95.1 µM | OVCAR-3 > 100 µM | NCI-H23 > 100 µM

CC(=O)Nc1ccc2nncnc2c1
inactive: UACC-62 > 100 µM | A549 > 100 µM | M14 > 100 µM | MDA-N > 100 µM | SW-620 > 100 µM | NCI-H226 > 100 µM | SN12C > 100 µM | OVCAR-4 > 100 µM | CCRF-CEM > 100 µM | HCT-116 > 100 µM | OVCAR-5 > 100 µM | NCI-H460 > 100 µM | Hs-578T 77.6 µM | SNB-75 > 100 µM | OVCAR-3 > 100 µM | A498 > 100 µM | NCI-H23 > 100 µM

O/N=C\c1c2c(cc3c1CCC3)CCC2
inactive: UACC-62 > 100 µM | A549 > 100 µM | M14 > 100 µM | MDA-N > 100 µM | SW-620 > 100 µM | NCI-H226 > 100 µM | SN12C > 100 µM | OVCAR-4 > 100 µM | HCC 2998 > 100 µM | CCRF-CEM > 100 µM | HCT-116 > 100 µM | OVCAR-5 > 100 µM | NCI-H460 > 100 µM | Hs-578T > 100 µM | SNB-75 36.5 µM | OVCAR-3 > 100 µM | A498 34.1 µM | NCI-H23 > 100 µM

C=CCOCn1cc(C)c(=O)[nH]c1=O
inactive: UACC-62 > 100 µM | A549 > 100 µM | M14 > 100 µM | MDA-N > 100 µM | SW-620 > 100 µM | NCI-H226 > 100 µM | SN12C > 100 µM | HCC 2998 > 100 µM | CCRF-CEM > 100 µM | HCT-116 > 100 µM | NCI-H460 > 100 µM | Hs-578T > 100 µM | SNB-75 > 100 µM | A498 > 100 µM | NCI-H23 > 100 µM

Cc1nnc([C@@]2(C)CC[C@H]3[C@@H](CC=C4C[C@@H](O)CC[C@@]43C)[C@@H]2CC#N)o1
inactive: UACC-62 > 100 µM | A549 > 100 µM | M14 > 100 µM | MDA-N > 100 µM | SW-620 > 100 µM | NCI-H226 > 100 µM | SN12C > 100 µM | OVCAR-4 > 100 µM | HOP-92 > 100 µM | CCRF-CEM > 100 µM | HCT-116 > 100 µM | OVCAR-5 > 100 µM | Hs-578T 11.6 µM | SNB-75 27 µM | OVCAR-3 > 100 µM | A498 > 100 µM | NCI-H23 > 100 µM

OCCSCc1cc2c(O)c(c1)Cc1cc(CSCCO)cc(c1O)Cc1cc(CSCCO)cc(c1O)Cc1cc(CSCCO)cc(c1O)C2
inactive: A549 4.86 µM | M14 3.08 µM | MDA-N 3.42 µM | SW-620 3.92 µM | NCI-H226 10.4 µM | SN12C 4.59 µM | OVCAR-4 3.61 µM | HCC 2998 9.38 µM | HOP-92 4.26 µM | CCRF-CEM 5.35 µM | HCT-116 4.02 µM | OVCAR-5 5.6 µM | NCI-H460 2.89 µM | Hs-578T 8.43 µM | OVCAR-3 1.73 µM | A498 6.15 µM | NCI-H23 5.37 µM

CCOC1NC(=O)c2ccccc21 (configuration not stated)
inactive: UACC-62 > 100 µM | A549 > 100 µM | M14 > 100 µM | MDA-N > 100 µM | SW-620 > 100 µM | NCI-H226 > 100 µM | SN12C > 100 µM | OVCAR-4 > 100 µM | HCC 2998 > 100 µM | HOP-92 > 100 µM | CCRF-CEM > 100 µM | HCT-116 > 100 µM | OVCAR-5 > 100 µM | NCI-H460 > 100 µM | Hs-578T > 100 µM | SNB-75 > 100 µM | OVCAR-3 > 100 µM | NCI-H23 > 100 µM

O=c1cc(NNc2cccc(F)c2)[nH]c(=S)[nH]1
inactive: A549 > 100 µM | M14 > 100 µM | MDA-N > 100 µM | SW-620 > 100 µM | NCI-H226 > 100 µM | SN12C > 100 µM | OVCAR-4 > 100 µM | HCC 2998 63.4 µM | HOP-92 19.2 µM | HCT-116 > 100 µM | OVCAR-5 > 100 µM | NCI-H460 > 100 µM | Hs-578T > 100 µM | OVCAR-3 26.9 µM | A498 > 100 µM

N#Cc1nnc2c3c(-c4ccc(Cl)cc4)c(C#N)c(O)nc3nn2c1N
inactive: UACC-62 1.85 µM | A549 21.1 µM | M14 6.89 µM | MDA-N 3.61 µM | SW-620 5.46 µM | NCI-H226 9.55 µM | SN12C 2.38 µM | OVCAR-4 14.9 µM | HCC 2998 3.14 µM | HOP-92 5.2 µM | CCRF-CEM 3.63 µM | HCT-116 3.51 µM | OVCAR-5 24.8 µM | NCI-H460 9.14 µM | Hs-578T 3.4 µM | OVCAR-3 3.27 µM | A498 2.77 µM | NCI-H23 5.81 µM

COc1cccc(C2c3cc4c(cc3OC(C)(N3CCCC3)C2C)OCO4)c1OC (configuration not stated)
inactive: UACC-62 16.9 µM | A549 5.58 µM | M14 14.6 µM | MDA-N 10.6 µM | SW-620 6.89 µM | NCI-H226 14.4 µM | SN12C 6.52 µM | OVCAR-4 5.18 µM | HCC 2998 19.1 µM | HOP-92 14.3 µM | CCRF-CEM 4.85 µM | HCT-116 4.3 µM | OVCAR-5 16 µM | NCI-H460 11.7 µM | Hs-578T 10.7 µM | SNB-75 8.89 µM | OVCAR-3 5.07 µM | NCI-H23 15 µM

CC1=NNC(=O)C1C(CC(=O)c1c[nH]c2ccccc12)C(=O)O (configuration not stated)
inactive: UACC-62 > 100 µM | A549 > 100 µM | M14 > 100 µM | MDA-N > 100 µM | SW-620 > 100 µM | NCI-H226 > 100 µM | SN12C > 100 µM | HOP-92 > 100 µM | CCRF-CEM 28.6 µM | HCT-116 > 100 µM | OVCAR-5 > 100 µM | NCI-H460 > 100 µM | Hs-578T > 100 µM | SNB-75 > 100 µM | OVCAR-3 > 100 µM | A498 > 100 µM | NCI-H23 > 100 µM

NC(=O)c1nnc2cc(F)ccc2c1N
inactive: UACC-62 97.3 µM | A549 > 100 µM | M14 > 100 µM | MDA-N > 100 µM | SW-620 > 100 µM | NCI-H226 58.2 µM | SN12C > 100 µM | OVCAR-4 > 100 µM | HCC 2998 > 100 µM | CCRF-CEM > 100 µM | HCT-116 > 100 µM | OVCAR-5 > 100 µM | NCI-H460 > 100 µM | Hs-578T > 100 µM | SNB-75 > 100 µM | OVCAR-3 > 100 µM | A498 91.6 µM | NCI-H23 > 100 µM
